Data as given in patent US9289444B2, “Composition for promoting hematogenesis containing quercetin 3-O-β-(2″-galloyl)-rhamnopyranoside as active ingredient” (Chungbuk National University Industry Academic Cooperation …, priority 2011, dated 2016).

Experiments:
BMNCs [1] = test: Semisolid colonogenic assay (BFU-E colonies); type: cell-based, mouse
Experimental: To investigate the effects of QGR on erythroid lineage development in mouse HSCs and EPCs, the colonogenic assay was performed according to the manufacturer's instruction in triplicate by plating 2×10^5 cells/plate using methylcellulose stock solution in IMDM (R&D Systems) with cocktail (rIL-3 100 units/ml plus rSCF 5 units/ml plus rEpo 3 units/ml) or/and QGR (0, 100 or 200 μM/ml) in 35 mm-diameter cell culture plates. These plates were put in 100 mm-diameter plates with 3 ml of autoclaved distilled water and incubated at 37° C. in 5% CO2 humidity air. 14 days later, BFU-E colonies were counted under an Axiovert 40 CFL inverted microscope (Carl Zeiss, Oberkochen, Germany).

BMNCs [2] = test: Histochemistry (Wright-Giemsa) and immunocytochemistry for erythroid cells (TER-119); type: cell-based, mouse; settings: 7 days culture
Experimental: In order to investigate whether QGR can stimulate the differentiation of hematopoietic stem cells into erythroid cells, the morphology of cells was observed and immunocytochemistry against TER-119, the marker of erythroid progenitors, was carried out. BMNCs were harvested 7 days after incubation with either rEpo (3 units/ml) or QGR (100 or 200 μM/ml) washed with PBS, re-suspended at a concentration of 2×10^5 cells/ml in PBS and subjected (100 μl/slide) to cytospin for 5 min at 1,000 rpm (Cytospin3; Shandon, ThermoElectron, Waltham, Mass., USA). All slides were fixed using cold methanol. Wright-Giemsa stain was performed for morphologic analysis. Immunocytochemistry against TER-119 was carried out for cellular lineage with 100-fold dilution according to the manufacturer's instruction using avidin biotinylated enzyme complex kit (VECTASTAIN, Vector Laboratories and Burlingame, Calif., USA).

[3] = system: bone marrow failure mouse induced by busulphan (BU); test: Peripheral blood analysis in bone marrow failure model induced by busulphan (BU); type: in vivo, Balb/c mice
Text: 5-week-old female Balb/c mice were purchased from Orient Bio Inc. (Seongnam-si, Gyeonggi-do, Korea). All protocols of animal experiments were approved by Institutional Animal Care and Use Committee of Laboratory Animal Research Center, Chungbuk National University. The mice were fed by Teklad Global 18% protein rodent diet (Harlan, Iowa, USA) and had free access to drinking water. The mice were housed and bred under specific pathogen-free conditions, and were went through environmental acclimatization for one week before used in the animal experiments and were separated into three groups (n=70/group).
(§1) Bone marrow failure model induced by administering busulphan (BU) was designed according to the procedures previously described by Molyneux et al (Cell Biol Toxicol 27, 13-40, 2011) and the scheme is shown in FIG. 8. BU (Sigma chemicals, Poole, Dorset, UK) was dissolved in acetone to a final concentration of 18.8 mg/ml, diluted five-fold with distilled water, and was intraperitoneally administered three times for 5 days with the dose of 0.2 ml BU solution per mouse. Equal amount of five-fold diluted acetone solution without BU was administered to vehicle control group. QGR was dissolved in dimethylsulfoxide and diluted with distilled water to a final concentration of 1.25%. Mice were orally administered every two days with QGR (0.25 mg/mouse) for 63 days. Seven or eight mice were sacrificed on days of 1, 5, 10, 16, 25, 40, 49, and 63 after BU administration and were investigated to confirm the effect of QGR to recover bone marrow failure.
In order to evaluate the activity of QGR to recover anemia animal model induced by BU administration, peripheral blood was collected during an autopsy and were investigated. The collected peripheral blood was stored in the bottle containing EDTA to prevent a blood clotting, and the numbers of erythrocytes, leukocytes, and platelets, hematocrit (HCT) level, mean corpuscular volume (MCV), and mean corpuscular hemoglobin (MCH) were measured.

[4] = system: bone marrow failure mouse induced by busulphan (BU); test: Flow cytometric analysis of bone marrow cells in BU bone marrow failure model; type: in vivo, Balb/c mice
Experimental: as §1
In order to investigate whether QGR has an activity to recover bone marrow failure induced by BU administration, the expression of markers associated with hematopoietic stem cells/progenitors (Sca-1^+ or c-kit^+), bone mesenchymal stem/progenitor cells (Sca-1^+CD44^+), apoptotic hematopoietic stem cells (c-Kit^+7-aminoactinomycin D^+) were measured by flow cytometry. The retrieved BMNCs with the concentration of 0.6×10^6 cells/ml were precipitated by centrifugation, re-suspended in 100 μl of PBS containing 0.02% sodium azide and 2% FBS, and incubated with 10 μl of mouse anti-CD16/CD32 Ab (eBioScience, San Diego, Calif., USA) as FC receptor blocker for 3 min at room temperature. After that, monoclonal antibodies for c-kit (2B8, BD Pharmingen, USA), Sca-1 (D7, eBioscience), CD44 (IM7, eBioscience) were added and further incubated for 30 min under the temperature of 4° C. Isotype-matched irrelevant rat IgG2b-FITC (eBioscience) and isotype-matched irrelevant rat IgG2a-PE (eBioscience) were used as negative control. The flow cytometric analysis was carried out using FACS Calibur (Becton Dickinson, Oxnard, Calif., USA) and the percentage of positively stained cells was determined. The double staining of c-kit and 7-AAD (Calbiochem-Novabiochem, Nottingham, UK) was carried out according to the procedures previously described by Philpott et al (Exp Hematol, 23, 1642-1648, 1995).

[5] = system: bone marrow failure mouse induced by busulphan (BU); test: Semisolid colonogenic assay for BFU-E in BU bone marrow failure model; type: in vivo, Balb/c mice; settings: from 10 days to 63 days after QGR administration, vs positive control group
Experimental: as §1
In order to investigate whether QGR has an activity to promote the differentiation from hematopoietic stem cells to BFU-E namely an erythroid progenitor in the damaged bone marrow induced by BU administration, the semisolid colonogenic assay was carried out. […] 14 days later, the number of BFU-E colony was counted.

[6] = system: unopsonized zymosan-stimulated human monocytes; settings: cited from earlier work
[7] = system: lipopolysaccharide (LPS)-stimulated RAW 264.7 macrophage cells; settings: cited from earlier work
LPS-induced Balb/c mice = settings: cited from earlier work
[8] = QGR 0.25 mg/mouse orally after BU

CC1OC(Oc2c(-c3ccc(O)c(O)c3)oc3cc(O)cc(O)c3c2=O)C(OC(=O)c2cc(O)c(O)c(O)c2)C(O)C1O (stereo not drawn) [QGR, quercetin 3-O-β-(2″-galloyl)-rhamnopyranoside]
formation and growth of BFU-E colonies compared with the positive control (BMNCs [1]; cocktail (rIL-3, rSCF and rEpo) plus 200 μM QGR, p<0.01): 1.43 fold | number of BFU-E colonies compared with negative control (BMNCs [1]; day 14, 100 or 200 μM/ml for QGR, dose-dependent): significantly enhanced | number of BFU-E colony compared with positive control (BMNCs [1]; day 14, QGR alone vs rIL-3+rSCF+rEpo): smaller than that of positive control | number of enucleated erythroid cells (BMNCs [2]; Wright-Giemsa staining): increased | TER-119+ cells (immunocytochemical analysis) (BMNCs [2]; vs negative control): increased | mean corpuscular volume (MCV) ([3]; BU group vs BU+QGR group): BU administration group are significantly lower than those of BU+QGR administration group | leukocyte numbers vs normal control group [3, 8]: slightly lower | recovery effect of leukocyte level, onset [3, 8]: ≥ 10 days | recovery effect on erythrocyte level, onset [3, 8]: ≥ 5 days | recovery of reduced platelet numbers, onset [3, 8]: ≥ 16 days | erythrocyte level vs normal control group ([3]; QGR 0.25 mg/mouse orally every two days after BU): slightly lower | erythrocyte level vs positive control group (BU + vehicle) ([3]; QGR 0.25 mg/mouse orally every two days, days 5, 10, 16, 25, 49, 63): significantly higher | leukocyte numbers vs positive control group (BU + vehicle) ([3]; day 10 up to day 63): higher level | hemoglobin (HGB) level ([3]; pattern similar to erythrocytes): recovered the anemia | platelet numbers ([3]; vs positive control group (BU + vehicle), significant differences continuously): steeply recovered | number of cells positive for Sca-1 (HSPCs) ([4]; after 10 days of QGR administration, vs positive control group): increased | number of c-kit positive cells (HSPCs) ([4]; at 10 days after QGR administration, significant difference from positive control at 16 days): increased | number of MSPCs (CD44+Sca-1+ cells) ([4]; time course, remarkably decreased in positive control group): no change | number of apoptotic HSPCs ([4]; time course, significantly increased from 10 days in positive control group): no change | number of BFU-E [5]: increased significantly and consistently | superoxide production [6]: inhibiting | nitric oxide production [7]: inhibiting | nitric oxide production (LPS-induced Balb/c mice): inhibiting
